Data from patent US4136163A, “P-Menthane carboxamides having a physiological cooling effect” (Wilkinson Sword Limited, priority 1971, dated 1979).

Tests used:
Type in all cases: in vivo, human
[1] = system: cold receptors; assay: Threshold test: minimum quantity of compound on filter paper square on tongue giving a noticeable cooling effect, selected panel of 6 people; details: panel of 6 people, cooling reported 50% of the time
Excerpt: For example, a controlling factor in the onset of cooling effect, its intensity and longevity will be the rate of penetration of the compounds through the epidermis and this will vary in different locations on the human body.
It will also benoted that the described test procedure is done on a statistical basis. This is necessary since sensitivity to these compounds will vary not only from compound to compound and from one part of the body to another, but also from one individual to another. Tests of this nature are commonly used in the testing of the organoleptic properties, e.g. taste, smell etc. of organic and inorganic compounds, see Kirk-Othmer: Encyclopedia of Chemical Technology, 2nd. Ed.
The following test procedure is aimed at determining the minimum quantity of the test compound required to produce a noticeable cooling effect on a person of average sensitivity, this minimum quantity being termed the threshold for that particular compound. The tests are carried out on a selected panel of 6 people of median sensitivity to 1-menthol.
To select a test panel of average sensitivity the following procedure is used. Known quantities of 1-menthol in solution in petroleum ether (bp.40-60) are placed on 5 mm. squares of filter paper, whereafter the solvent is allowed to evaporate. A panel of observers is enrolled and asked to place one impregnated square at a time on the tongue and to report on the presence or absence of a cooling effect. […] Conveniently, one starts with squares containing 2.0 μg. 1-menthol, the amount on each successive square being half that of the preceding square, i.e. the second test square will contain 1.0 μg, the third 0.5 μg and so on. Each quantity is tested on the tongue at least 10 times. In this way, the thresholds to cold receptor stimulus by 1-menthol are determined for each individual of the panel, the threshold for each individual being that amount of 1-menthol for which, in a series of not less than 10 test applications, a cooling effect is reported 50% of the time.
To test the activity of compounds according to this invention, the above procedure is repeated using only the 6 selected panel members of average sensitivity to 1-menthol. The individual thresholds for each test compound on each of the 6 selected panel members are determined and averaged. Those compounds whose average threshold on the select test panel is 100 μg or less are regarded as having cooling activity in accordance with this invention.

[2] = system: cold receptors; assay: Cooling effect of consumer product applied to skin (face, scalp, lips, forehead)
Procedure: Into two separate samples of the base lotion were added 2.0% by weight based on the total composition of N-ethyl-p-menthane-3-carboxamide and N,N-dimethyl-p-menthane-3-carboxamide, each into a different one of the two samples.
To the recipe was added 3.0%, based on the total composition of N-p-menth-3-oylglycine methyl ester. […]
Sodium lauryl ether sulphate, 10 g., was dispersed in 90 g. water in a high speed mill. To the dispersion was added 3.3% by weight of N-(2-hydroxy-n-propyl)-p-menthane-3-carboxamide. […]
The sodium stearate was dissolved by stirring in a warm mixture of the ethanol propylene glycol and water. To the solution was added the perfume and 3.0% of N-(2-hydroxy-n-propyl)-p-menthane-3-carboxamide and the mixture then allowed to solidify into a waxy cake. […]
This Example illustrates now the physiological cooling effect of the compounds of this invention varies according to the locality of application.
In the course of grinding there was added 3.0% of N-n-propyl-p-menthane-3-carboxamide. […]
To this liquid was added 1.0% of N-ethyl-p-menthane-3-carboxamide. A paper tissue was then soaked in the liquid.

[3] = system: cold receptors; assay: Cooling effect of consumer product in the mouth / on the tongue
Procedure: To the compositions was added 0.1% of N-n-propyl-p-menthane-3-carboxamide.
Shortly before completion of the blending operation 0.5% by weight of N-(p-menth-3-oyl) morpholine was added to the blender. […]
N-(2-hydroxy-n-propyl)-p-menthane-3-carboxamide was added to a proprietary gin in an amount of 0.08%.
99.5% sucrose and 0.5% citric acid were carefully fused together in the presence of a trace of water. Just before casting the melt onto a chilled plate 0.13% of N,N-dimethyl-p-menthane-3-carboxamide were repidly stirred in. The melt was then cast.
Water was added to icing sugar at 50° C to form a stiff paste. 0.05% of N-ethyl-p-menthane-3-carboxamide was then stirred into a paste and the mixture allowed to set. […]
A proprietary ice cream mixture was mixed in accordance with the manufactures instructions. Shortly before freezing N-p-menth-3-oyl-β-aminopropionic acid n-propyl ester was added in an amount of 0.05%. […]

Row | SMILES | Threshold (average minimum quantity to produce a noticeable cooling effect) [1] [µg] | further results
1 | CC1CCC(C(C)C)C(C(=O)NCCCO)C1 (stereo not shown) [H, --(CH2)3 OH, N-3-hydroxypropyl-p-menthane carboxamide] | 3 | cooling effect ([2]; Example 24 repeated, cleansing tissue, 2.0%, skin, in place of the N-ethyl compound): equally effective results
2 | CC(O)CNC(=O)C1CC(C)CCC1C(C)C (stereo not shown) [H, --CH2 CH(OH)CH3, N-(2-hydroxy-n-propyl)-p-menthane-3-carboxamide] | 5.5 | cooling effect ([3]; Example 15, gin, 0.08%, mouth): a very strong cooling after-effect is obtained in the mouth; cooling effect ([2]; Example 5, hair shampoo, 3.3%, scalp): a fresh, cool sensation is noticed on the scalp; cooling effect ([2]; Example 7, solid cologne, 3.0%, forehead): a very strong and long lasting cooling effect is obtained
3 | CNC(=O)C1CC(C)CCC1C(C)C (stereo not shown) [H, --CH3, N-methyl-p-menthane-3-carboxamide] | 1.1 | cooling effect ([2]; Example 4, deodorant composition, 1.3%, skin): definte cooling sensation on the skin
4 | CCCOC(=O)CCNC(=O)C1CC(C)CCC1C(C)C (stereo not drawn) [N-p-menth-3-oyl-β-aminopropionic acid n-propyl ester] | – | cooling effect ([3]; Example 19, ice cream, 0.05%): a cooling effect is noticeable which persists after the cooling effect attributable to the temperature of the ice cream has disappeared
5 | CC1CCC(C(C)C)C(C(=O)N(CCO)CCO)C1 (stereo not shown) [--CH2 CH2 OH, --CH2 CH2 OH, N,N-bis(2-hydroxyethyl)-p-menthane-3-carboxamide] | 50 | cooling effect ([3]; Example 18, chewing gum, 5.0%, mouth): marked cooling effect in the mouth
6 | CC1CCC(C(C)C)C(C(=O)N(C)C)C1 (stereo not shown) [--CH3, --CH3, N,N-dimethyl-p-menthane-3-carboxamide] | 1.5 | cooling effect ([3]; Example 16, boiled sweet, 0.13%, mouth): marked cooling effect on the mouth; cooling effect ([2]; Example 1, aerosol shaving soap, 1.0%, face): a fresh cool sensation was distinctly noticeable on the face; cooling effect ([2]; Example 2, after shave lotion, 2.0%, face): a clearly noticeable cooling effect became apparent after a short interval of time
7 | CCCOC(=O)CNC(=O)C1CC(C)CCC1C(C)C (stereo not shown) [H, --CH2 COOC3 H7 (n), N-(p-menth-3-oyl)glycine n-propyl ester] | 0.3 | cooling effect ([2]; Example 22, antipruritic ointment, 0.1%, skin): soothing effect on the skin accompanied by a noticeable cooling effect
8 | CC1CCC(C(C)C)C(C(=O)NCC(=O)O)C1 (stereo not shown) [H, --CH2 COOH, N-(p-menth-3-oyl) glycine] | 16 | cooling effect ([2]; Example 6, lipstick, 0.6%, lips): a persistent cooling effect is clearly noiticeable
9 | CC1CCC(C(C)C)C(C(=O)N(CCO)C(C)C)C1 (stereo not shown) [--C3 H7 (iso), --CH2 CH2 OH] | 3 | –
10 | CC1CCC(C(C)C)C(C(=O)N(C)CCO)C1 (stereo not shown) [--CH3, --CH2 CH2 OH] | 5 | –
11 | CC1CCC(C(C)C)C(C(=O)NC2CCCCCC2)C1 (stereo not shown) [H, --C7 H13 (cyclo)] | 3 | –
12 | COC(=O)CNC(=O)C1CC(C)CCC1C(C)C (stereo not shown) [H, --CH2 COOCH3, N-(p-menth-3-oyl)glycine methyl ester] | 0.6 | cooling effect ([2]; Example 3, toilet water, 3.0%, skin): a cooling effect was clearly noticeable on the skin well after the termination of any cooling effect attributable to the evaporation of the alcoholic carrier; cooling effect ([2]; Example 8, hair tonic, 2.0%, scalp): a cooling effect is noticed; cooling effect ([2]; Example 21, antiseptic ointment, 0.5%, skin): marked cooling effect
13 | CC1CCC(C(C)C)C(C(=O)NC(C)(C)CO)C1 (stereo not shown) [H, --C(CH3)2 CH2 OH, N-(1,1-dimethyl-2-hydroxyethyl)-p-menthane-3-carboxamide] | 0.4 | cooling effect ([3]; Example 14, soft drink, 0.02% in concentrate, diluted with water): pleasantly cool after-effect
14 | CC1CCC(C(C)C)C(C(=O)N2CCOCC2)C1 (stereo not shown) [--CH2 CH2 OCH2 CH2 --, N-(p-menth-3-oyl)morpholine] | 5.5 | cooling effect on mucous membranes of the mouth ([3]; Example 11, applied to the mucous membranes of the mouth): very pronounced; cooling effect ([3]; Example 11, toothpaste, 0.5%, mouth): a strong cooling effect is noticed in the mouth; cooling effect on skin ([2]; Example 11, applied to the skin as an alcoholic solution): relatively weak
15 | CCC(CO)NC(=O)C1CC(C)CCC1C(C)C (stereo not shown) [H, --CH(C2 H5)CH2 OH] | 1.0 | –
16 | CCCCNC(=O)C1CC(C)CCC1C(C)C (stereo not shown) [H, --C4 H9 (n)] | 1.4 | –
17 | CC(=O)OCCNC(=O)C1CC(C)CCC1C(C)C (stereo not shown) [H, --CH2 CH2 OCOCH3] | 1.5 | –
18 | CC1CCC(C(C)C)C(C(=O)NCC#CCO)C1 (stereo not shown) [H, --CH2 C≡CCH2 OH] | 17 | –
19 | CC1CCC(C(C)C)C(C(=O)Nc2cccnc2)C1 (stereo not shown) [H, --3-Pyridyl] | 0.5 | –
20 | CC1CCC(C(C)C)C(C(=O)N2C(C)CCC2C)C1 (stereo not shown) [--CH(CH3)CH2 CH2 CH(CH3)--] | 0.5 | –
21 | CC1CCC(C(C)C)C(C(=O)NCCCCCCO)C1 (stereo not shown) [H, --(CH2)6 OH] | 1.0 | –
22 | CC1CCC(C(C)C)C(C(=O)Nc2ccc(O)cc2)C1 (stereo not shown) [H, --C6 H4 OH(p)] | 1.4 | –
23 | CCCCCCCCCCNC(=O)C1CC(C)CCC1C(C)C (stereo not shown) [H, --C10 H21 (n)] | 10 | –
24 | CCCNC(=O)C1CC(C)CCC1C(C)C (stereo not shown) [H, --C3 H7 (n), N-n-propyl-p-menthane-3-carboxamide] | 0.8 | cooling effect ([3]; Example 10, mouthwash concentrate, 0.1%, diluted with approximately 10 times its own volume of water): a strong and long lasting cooling effect is obtained in the mouth; cooling effect ([2]; Example 13, talcum powder, 3.0%): freshening and cooling effect
25 | CC1CCC(C(C)C)C(C(=O)N2CCCC2)C1 (stereo not shown) [--(CH2 H4 --] | 5 | –
26 | CC1CCC(C(C)C)C(C(=O)Nc2ccc(F)cc2)C1 (stereo not shown) [H, --C6 H4 F(p)] | 0.5 | –
27 | CCOC(=O)CC(C)NC(=O)C1CC(C)CCC1C(C)C (stereo not shown) [H, --CH(CH3)CH2 COOC2 H5] | 0.8 | –
28 | CCN(CC(C)C)C(=O)C1CC(C)CCC1C(C)C (stereo not shown) [--C2 H5, --C4 H9 (iso)] | 5 | –
29 | CC1CCC(C(C)C)C(C(=O)N2CCNCC2)C1 (stereo not shown) [--CH2 CH2 NHCH2 CH2 --] | 15 | –
